From patent US6716428B1, “Antigenic modification of polypeptides” (The Ohio State University Research Foundation, priority 1999, dated 2004)
Where two headings read alike, the source gives them in different places.

Tests used:
[1] = test system: HCG; format: in vivo, rabbit
[2] = test system: HCG; assay: Antibody level to HCG in immunized mice (^125I antigen, double antibody technique); format: in vivo; conditions: 52 days
[3] = test system: peptide used in the conjugate (Structure (II), (XII), (XIV), (X)); assay: Antibody level to the peptide of the conjugate in immunized mice (^125I antigen, double antibody technique); format: in vivo; conditions: 52 days

Row | Compound | Mean Antibody Level-^125I-HCG ([1]; as E193, 4 weeks) | Mean Antibody Level-^125I-HCG ([1]; as E193, 5 weeks) | Mean Antibody Level-^125I-HCG ([1]; as E193, 6 weeks) | Mean Antibody Level-^125I-HCG ([1]; as E193, 7 weeks) | Mean Antibody Level-^125I-HCG ([1]; as E193, 8 weeks) | Mean Antibody Level-^125I-HCG ([1]; as E193, 9 weeks) | Mean Antibody Level-^125I-HCG ([1]; as E193, 10 weeks) | Mean Antibody Level-^125I-HCG ([1]; as E193, 11 weeks) | Mean Antibody Level-^125I-HCG ([1]; as E193, 12 weeks) | Mean Antibody Level-^125I-HCG ([1]; in vivo) | Antibody level to CG [2] | Antibody level to CG ([2]; C3H/He mice, same conjugate) | Antibody level to CG ([2]; DBA mice, same conjugate) | Antibody level to CG ([2]; SJL mice, same conjugate) | Antibody level to Structure (XII) [3] | Antibody level to Structure (XII) ([3]; C3H/He mice, same conjugate) | Antibody level to Structure (XII) ([3]; DBA/1 mice, same conjugate) | Antibody level to Structure (XII) ([3]; SJL mice, same conjugate) | HCG antibody levels compared with rabbits receiving adjuvants CGP 16940 and 12908 ([1]; in vivo) | HCG antibody levels compared with the CFA immunized rabbits ([1]; in vivo)
1 | NAc-Mur-L.Ala-D.isoGln-L.Ala-Cephalin [CGP 19835] | 286.7 M/L × 10^10 | 140.3 M/L × 10^10 | 172.0 M/L × 10^10 | 123.4 M/L × 10^10 | 138.9 M/L × 10^10 | 105.2 M/L × 10^10 | 151.3 M/L × 10^10 | 169.3 M/L × 10^10 | 107.8 M/L × 10^10 | 19.3 M/L × 10^10 |  |  |  |  |  |  |  |  |  | 
2 | CCC(NC(=O)COC1C(O)C(CO)OC(O)C1NC(C)=O)C(=O)NC(CCC(=O)O)C(N)=O [CGP 14767, NAc-nor-Mur-L-Abu-D.isoGln] |  |  |  |  |  |  |  |  |  |  | 21.0 ng/mL | 21.4 ng/mL | 11.1 ng/mL | 5.4 ng/mL | 53.0 ng/mL | 74.9 ng/mL | 22.2 ng/mL | 91.6 ng/mL |  | 
3 | NGlycol-Mur-L. a -Abu-D.isoGln [DT-1] | 145.1 M/L × 10^10 | 184.1 M/L × 10^10 | 268.6 M/L × 10^10 | 371.5 M/L × 10^10 | 366.2 M/L × 10^10 | 654.8 M/L × 10^10 | 729.4 M/L × 10^10 | 627.5 M/L × 10^10 | 559.0 M/L × 10^10 | 31.1 M/L × 10^10 |  |  |  |  |  |  |  |  | significantly greater | 
4 | CC(=O)N[C@H]1C(O)O[C@H](CO)[C@@H](O)[C@@H]1OCC(=O)N[C@@H](C)C(=O)N[C@H](CCC(=O)O)C(N)=O (stereo partly drawn) [CGP 11637, NAc-nor Mur-L. Ala-D. iso Gln] | 177.8 M/L × 10^10 | 211.9 M/L × 10^10 | 297.2 M/L × 10^10 | 381.2 M/L × 10^10 | 418.6 M/L × 10^10 | 480.0 M/L × 10^10 | 708.6 M/L × 10^10 | 628.5 M/L × 10^10 | 398.5 M/L × 10^10 | 16.3 M/L × 10^10 | 18.3 ng/mL | 21.5 ng/mL | 10.6 ng/mL | 13.8 ng/mL | 70.9 ng/mL | 84.0 ng/mL | 42.5 ng/mL | 60.1 ng/mL | significantly greater | 
5 | N-Palmitoyl-S-[2(R,S)-3-dipalmitoyloxy-propyl]-L-Cys-L-Ser-L-Ser-L-Asn-L-Ala-L-Glu [CGP 16940] |  |  |  |  |  |  |  |  |  |  | 1.0 ng/mL | <1.0 ng/mL | <1.0 ng/mL | 8.6 ng/mL | 110.0 ng/mL | 19.2 ng/mL | 173.0 ng/mL | 369.0 ng/mL |  | significantly lower
